Results from patent US20090170788A1, “NOVEL USE OF 1, 2, 3, 4, 6-PENTA-O-GALLOYL-BETA-D-GLUCOSE” (priority 2006, published 2009).

Experiments:
type I procollagen [1] = assay: Type I procollagen expression (ELISA) in UV-irradiated human normal dermal fibroblasts; type: cell-based
Method: (§1) Human normal dermal fibroblasts, which were isolated and cultured from the skin dermal layer cut from infant phimosis, were seeded into a 6-well plate at a density of 1×10^5 cells/well, and then cultured in 10% fetal bovine serum-containing DMEM (Dulbecco's modified Eagle's medium) for 24 hours. After the culture, the cells were washed three times with phosphate buffered saline (PBS) and then irradiated with UV A and […] in the following manner in order to induce skin aging. UV A was irradiated using a UV A lamp (Sankyo Denki FL8BL lamp, Sankyo Denki Co., Japan) to a total energy dose of 50 mJ/cm^2 at a rate of 27 mW/cm^2/sec, and UV B was irradiated using a UV B lamp (Sankyo Denki G9T5E lamp, Sankyo Denki Co., Japan) to a total energy dose of 170 mJ/cm^2 at a rate of 1.15 mW/cm^2/sec. […] In order to examine if the skin was aged after the culture, the expression levels of skin intercellular matrix component type I procollagen and its degradation enzyme MMP-1 were measured using a type I procollagen ELISA kit (Procollagen Type I C-Peptide EIA kit, TaKaRa, Japan) and a MMP-1 ELISA kit (MMP-1 human, ELISA system, Biotrak Assay, Amersham Biosciences, USA) according to manufacturer's protocols. […]

MMP-1 [2] = assay: MMP-1 expression (ELISA) in UV-irradiated human normal dermal fibroblasts; type: cell-based
Method: as §1

COX-2 = COX-2 protein expression (Western blot) in UV B-irradiated human keratinocytes (HaCaT); type: cell-based; conditions: HaCaT cells, UV B 10 mJ/cm^2, 1, 10, 30, 50 μM, 12 hours
Method: Human keratinocytes (HaCaT cell) provided by professor N. Fusenig (German Cancer Research, Germany) were seeded into a 100 mm culture dish to 1.3×10^6 cells, and then cultured in a DMEM medium containing 10% fetal bovine serum for 24 hours. After the culture, the cells were washed three times with phosphate buffered saline, and then irradiated with UV B in the following manner in order to induce skin aging. UV B was irradiated using an UV B lamp to a total energy dose of 10 mJ/cm^2 at a rate of 0.6 mW/cm^2/sec. Just after the UV irradiation, the cells were washed again with phosphate buffered saline, and 1,2,3,4,6-penta-O-galloyl-beta-D-glucose was added to a DMEM medium containing no fetal bovine serum at concentrations of 1, 10, 30, 50 μM. Then, the cells were further cultured in the medium for 12 hours. Test groups were divided as follows: After the 12-hr culture, the cells were washed with cold phosphate buffered saline, and then treated with lysis buffer to separate a cell protein. Then, the cell protein was subjected to Western blot analysis using a COX-2 antibody (Santa Cruz Biotch., USA) and a horseradish peroxidase-conjugated secondary antibody (ZYMED Laboratories, USA). As a loading control group, […] was used.

[3] = system: albino SKH-1 hairless mice; assay: Wrinkle formation caused by UV light in hairless mouse model (skin photographs, skin replica); type: in vivo; conditions: UV B 10 weeks, topical 10 mg/200 μl/4 cm^2 starting from 4 weeks after UV irradiation
Source text: Whether 1,2,3,4,6-penta-O-galloyl-beta-D-glucose has the effect of inhibiting wrinkle formation caused by UV light was examined. First, 7-week-old female hairless mice (albino SKH-1 hairless mice, Hanlim Experimental Animal Co., Suwon, Korea) were divided into the following three groups, each consisting of 10 animals.
(§2) The mice of each of the groups were put in an UV box equipped with an UV B lamp, and were irradiated with UV light at a dose of 100 mJ/cm^2 corresponding to minimal erythemal dose (MED). UV light was irradiated one time a day, three times a week for 4 weeks while increasing the dose of UV light from 100 mJ/cm^2 at the first week to 200 mJ/cm^2 at the second week, 300 mJ/cm^2 at the third week and 400 mJ/cm^2 at the fourth week so as to adapt the mice to UV light. Following the fourth week, the mice were irradiated with UV light at a dose of 400 mJ/cm^2 for 6 weeks, and thus the hairless mice were exposed to UV light for a total of 10 weeks, thereby inducing skin photoaging. (Kilgman L H, Clin Dermatol 14:183-195, 1996). In the case of the test group, starting from 4 weeks after UV irradiation, a composition containing 1,2,3,4,6-penta-O-galloyl-beta-D-glucose was dissolved in a propylene glycol solution containing 30% ethanol (7:3 [v/v] propylene glycol:ethanol) and applied to the skin of the mice in an amount of 10 mg/200 μl/4 cm^2. […]

[4] = system: albino SKH-1 hairless mice; assay: Epidermal thickening induced by UV light in hairless mouse model (H&E staining); type: in vivo; conditions: UV B 10 weeks, topical 10 mg/200 μl/4 cm^2
Source text: as §2, with “cm^2. In the case of the group treated with UV light alone, a composition containing no 1,2,3,4,6-penta-O-galloyl-beta-D-glucose was applied to the mice in an amount of 200 μl/4 cm^2 in the same manner as the test group.” for “cm^2.”

[5] = system: albino SKH-1 hairless mice; assay: Collagen formation/degradation after UV light in hairless mouse model (masson trichome staining); type: in vivo; conditions: UV B 10 weeks, topical 10 mg/200 μl/4 cm^2
Source text: as §2, with “cm^2. In the case of the group treated with UV light alone, a composition containing no 1,2,3,4,6-penta-O-galloyl-beta-D-glucose was applied to the mice in an amount of 200 μl/4 cm^2 in the same manner as the test group.” for “cm^2.”

type I procollagen [6] = assay: Type I procollagen expression in skin of UV-irradiated hairless mice (immunohistochemistry); type: in vivo, mouse; conditions: UV B 10 weeks, topical 10 mg/200 μl/4 cm^2
Source text: as §2, with “cm^2. In the case of the group treated with UV light alone, a composition containing no 1,2,3,4,6-penta-O-galloyl-beta-D-glucose was applied to the mice in an amount of 200 μl/4 cm^2 in the same manner as the test group.” for “cm^2.”

MMP-1 [7] = assay: MMP-1 expression in skin of UV-irradiated hairless mice (immunohistochemistry); type: in vivo, mouse; conditions: UV B 10 weeks, topical 10 mg/200 μl/4 cm^2
Source text: as §2, with “cm^2. In the case of the group treated with UV light alone, a composition containing no 1,2,3,4,6-penta-O-galloyl-beta-D-glucose was applied to the mice in an amount of 200 μl/4 cm^2 in the same manner as the test group.” for “cm^2.”

[8] = human normal dermal fibroblasts, UV A 50 mJ/cm^2 or UV B 170 mJ/cm^2, 1 and 10 μg/ml, 24 hours, concentration-dependent, vs UV light alone
[9] = in vitro, UV-irradiated human skin fibroblasts, comparison with EGCG control group

O=C(OC[C@H]1O[C@@H](OC(=O)c2cc(O)c(O)c(O)c2)[C@H](OC(=O)c2cc(O)c(O)c(O)c2)[C@@H](OC(=O)c2cc(O)c(O)c(O)c2)[C@@H]1OC(=O)c1cc(O)c(O)c(O)c1)c1cc(O)c(O)c(O)c1 [1,2,3,4,6-penta-O-galloyl-beta-D-glucose]
expression of type I procollagen (type I procollagen [1]; [8]): an increase in the expression of type I procollagen | expression of type I procollagen compared to EGCG (type I procollagen [1]; [9]): marked increase in the expression of type I procollagen compared to the case of treatment with EGCG | expression of MMP-1 (MMP-1 [2]; [8]): a decrease in the expression of MMP-1 | inhibitory effect on MMP-1 compared to EGCG (MMP-1 [2]; [9]): much more superior to the MMP-1 inhibitory effect of EGCG | expression of COX-2 (COX-2): reduced the expression of COX-2 in a concentration-dependent manner | frequency of wrinkle formation [3]: reduced the frequency of wrinkle formation | thickening of the skin epidermal layer [4]: the thickening of the skin epidermal layer was significantly decreased | amount of collagen [5]: the amount of collagen was increased compared to the group treated with UV light alone | amount of damaged collagen [5]: the amount of damaged collagen was decreased | expression of type I procollagen in skin tissue (type I procollagen [6]): the expression of type I procollagen was increased compared to the group treated with UV light alone | expression of MMP-1 in skin tissue (MMP-1 [7]): this increase in expression was inhibited
